Results on 1 molecule are retold here after patent US20200239398A1, “METHYLENE-CYCLOALKYLACETATE DERIVATIVES AND THEIR USE IN TREATMENT OF NEUROTROPIC CONDITIONS” (Yissum Research Development Company of The Hebrew …, priority 2018, published 2020).

SMILES strings stand for the structures. Where two headings read alike, the source gives them in different places.

In series [1] the target is Adrenergic Receptor β1 (ADRB1) (Homo sapiens, UniProt P08588). Nature of the series: SAFETYscan ADRB1 cAMP. The class given is cell-based. The following applies: 10 μM HU-MCA-13, read-out: Maximal Response.
Sequence of Adrenergic Receptor β1 (ADRB1) (P08588 whole entry): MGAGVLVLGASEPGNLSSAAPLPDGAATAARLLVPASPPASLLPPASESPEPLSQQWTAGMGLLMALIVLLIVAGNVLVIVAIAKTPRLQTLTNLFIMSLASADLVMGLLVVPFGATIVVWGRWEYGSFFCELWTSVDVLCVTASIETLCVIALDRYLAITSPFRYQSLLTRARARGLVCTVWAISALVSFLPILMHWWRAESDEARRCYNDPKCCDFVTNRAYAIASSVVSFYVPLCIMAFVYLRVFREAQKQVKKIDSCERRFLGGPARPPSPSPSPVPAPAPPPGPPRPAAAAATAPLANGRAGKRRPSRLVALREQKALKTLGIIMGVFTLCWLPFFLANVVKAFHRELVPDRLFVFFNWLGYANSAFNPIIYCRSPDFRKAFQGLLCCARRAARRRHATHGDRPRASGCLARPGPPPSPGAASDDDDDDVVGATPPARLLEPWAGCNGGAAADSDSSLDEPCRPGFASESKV
Series [2] deals with T1, Rho Associated Coiled-Coil Containing Protein Kinase 1 (serine-threonine kinase) (ROCK1) (Homo sapiens, UniProt Q13464).
T1 construct: DiscoverX (KINOMEscan)
T1 sequence (Q13464 whole entry): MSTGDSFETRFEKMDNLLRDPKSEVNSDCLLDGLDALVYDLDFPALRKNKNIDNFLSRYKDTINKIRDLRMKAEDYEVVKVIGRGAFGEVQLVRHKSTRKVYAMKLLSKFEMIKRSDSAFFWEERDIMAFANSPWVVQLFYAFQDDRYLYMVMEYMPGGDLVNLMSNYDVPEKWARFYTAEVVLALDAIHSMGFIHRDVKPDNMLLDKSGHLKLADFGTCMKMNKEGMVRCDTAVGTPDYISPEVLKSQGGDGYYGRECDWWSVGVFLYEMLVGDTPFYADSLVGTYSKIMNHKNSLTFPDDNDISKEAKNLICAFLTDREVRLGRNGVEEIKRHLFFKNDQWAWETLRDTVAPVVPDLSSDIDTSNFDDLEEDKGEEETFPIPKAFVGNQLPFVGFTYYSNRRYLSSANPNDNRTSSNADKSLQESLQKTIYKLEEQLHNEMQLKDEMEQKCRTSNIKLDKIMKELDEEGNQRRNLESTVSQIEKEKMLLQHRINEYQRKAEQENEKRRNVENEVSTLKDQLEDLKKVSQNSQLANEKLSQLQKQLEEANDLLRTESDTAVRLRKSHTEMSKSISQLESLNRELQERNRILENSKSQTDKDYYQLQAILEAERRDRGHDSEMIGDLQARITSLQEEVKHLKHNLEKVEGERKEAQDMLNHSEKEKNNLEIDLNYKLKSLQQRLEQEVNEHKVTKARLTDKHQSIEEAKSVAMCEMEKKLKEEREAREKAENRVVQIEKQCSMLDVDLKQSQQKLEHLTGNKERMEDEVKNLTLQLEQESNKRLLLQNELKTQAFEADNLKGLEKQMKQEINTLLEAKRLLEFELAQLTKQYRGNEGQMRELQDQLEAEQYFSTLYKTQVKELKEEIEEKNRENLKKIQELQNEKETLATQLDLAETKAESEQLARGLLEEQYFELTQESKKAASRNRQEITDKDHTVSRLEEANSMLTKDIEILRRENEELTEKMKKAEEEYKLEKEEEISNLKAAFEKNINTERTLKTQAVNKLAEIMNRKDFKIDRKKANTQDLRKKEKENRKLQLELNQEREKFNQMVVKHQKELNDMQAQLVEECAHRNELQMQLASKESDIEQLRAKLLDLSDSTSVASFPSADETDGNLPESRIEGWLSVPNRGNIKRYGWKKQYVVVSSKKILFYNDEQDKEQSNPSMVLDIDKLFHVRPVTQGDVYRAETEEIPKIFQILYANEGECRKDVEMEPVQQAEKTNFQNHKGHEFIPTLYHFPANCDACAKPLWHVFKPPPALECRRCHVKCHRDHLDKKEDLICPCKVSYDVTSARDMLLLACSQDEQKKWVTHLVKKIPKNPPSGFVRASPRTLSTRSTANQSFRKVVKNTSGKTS
Nature of the series: SAFETYscan ROCK1 kinase Binding. The conditions noted are these: Inhibitor mode, 10 μM HU-MCA-13, read-out: Maximal Response.

Series [3] has as its target Muscarinic acetylcholine Receptor M3 (CHRM3) (Homo sapiens, UniProt P20309). Nature of the series: cell-based. The following applies: 10 μM HU-MCA-13, read-out: Maximal Response.
In series [4] the target is T2, N-methyl-D-aspartate (NMDA) Glutamate Receptor 1A/2B (NMDAR (1A/2B)) (Homo sapiens, UniProt Q05586+Q13224).
T2 construct: DiscoverX (SAFETYscan contract panel)
The series can be described thus: SAFETYscan NMDAR (1A/2B) Ion channel. The conditions noted are these: Blocker mode; 10 μM HU-MCA-13; read-out: Maximal Response. The class given is cell-based.

Series [5] has as its target Opioid Receptor Delta 1 (OPRD1) (Homo sapiens, UniProt P41143). The series can be described thus: SAFETYscan OPRD1 cAMP. The class given is cell-based. The following applies: 10 μM HU-MCA-13, read-out: Maximal Response.
Another series concerns male C57BL/6 mice. Nature of the series: Blood analysis 24 hours after injection. The class given is in vivo. How it is done: Tail vein blood samples were taken from DMSO 1% treated control (n=3) and HU-MCA-13-injected mice (n=4) after 24 hours from injection and submitted for hematocrit cell counting and biochemical analysis. Blood analyses are depicted in FIG. 4. No difference in any assay (blood count, electrolytes, coagulation parameters) was noted between the DMSO and HU-MCA-13-injected mice. Of special importance are normal liver (ALP, AST, ALT) functions and normal kidney (creatinine and blood urea nitrogen) functions, indicating sufficient organ integrity at the end of the experimental period.

Series [6] deals with T3, Nicotinic acetylcholine Receptor-alpha-4 beta-2 (nAChR (a4/b2)) (Homo sapiens, UniProt P17787+P43681).
T3 construct: DiscoverX (SAFETYscan contract panel)
T3 sequence (P43681 29-627 limits assumed): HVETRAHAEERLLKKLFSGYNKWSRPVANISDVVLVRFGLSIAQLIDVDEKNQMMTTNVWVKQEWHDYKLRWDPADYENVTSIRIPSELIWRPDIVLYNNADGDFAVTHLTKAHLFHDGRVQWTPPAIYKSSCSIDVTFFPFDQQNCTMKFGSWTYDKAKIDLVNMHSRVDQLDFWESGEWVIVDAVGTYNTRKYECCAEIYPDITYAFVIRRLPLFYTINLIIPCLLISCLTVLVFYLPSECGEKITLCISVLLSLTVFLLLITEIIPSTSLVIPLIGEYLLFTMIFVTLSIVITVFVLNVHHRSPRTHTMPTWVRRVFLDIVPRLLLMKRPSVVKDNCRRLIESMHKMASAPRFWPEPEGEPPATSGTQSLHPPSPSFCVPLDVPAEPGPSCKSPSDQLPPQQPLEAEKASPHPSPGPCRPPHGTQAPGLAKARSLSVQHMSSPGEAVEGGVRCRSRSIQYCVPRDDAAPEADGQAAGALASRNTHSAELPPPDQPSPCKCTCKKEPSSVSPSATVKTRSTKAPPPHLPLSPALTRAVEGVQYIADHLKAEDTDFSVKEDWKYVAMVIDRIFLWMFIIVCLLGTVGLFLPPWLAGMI
T3 sequence (P17787 26-502): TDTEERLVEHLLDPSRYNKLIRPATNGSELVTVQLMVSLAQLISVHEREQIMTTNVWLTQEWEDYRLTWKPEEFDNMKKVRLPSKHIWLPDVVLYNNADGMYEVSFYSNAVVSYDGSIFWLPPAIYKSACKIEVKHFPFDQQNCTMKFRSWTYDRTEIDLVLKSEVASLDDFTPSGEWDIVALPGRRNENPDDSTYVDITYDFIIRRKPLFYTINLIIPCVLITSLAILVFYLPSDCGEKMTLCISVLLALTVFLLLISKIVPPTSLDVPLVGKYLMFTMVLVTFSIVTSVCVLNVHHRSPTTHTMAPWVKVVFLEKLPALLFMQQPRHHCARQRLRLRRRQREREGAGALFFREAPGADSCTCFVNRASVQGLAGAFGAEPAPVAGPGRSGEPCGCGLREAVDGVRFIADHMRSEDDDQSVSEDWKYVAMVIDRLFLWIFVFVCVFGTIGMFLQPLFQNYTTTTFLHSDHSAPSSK
The series can be described thus: cell-based. The format is cell-based. The conditions noted are these: 10 μM HU-MCA-13, read-out: Maximal Response.

The subject of series [7] is spinal cord motor neurons. Nature of the series: Neurite outgrowth in adult rat spinal cord primary cultures. The class given is cell-based. The conditions noted are these: 10 μM HU-MCA-13 for 7 days. How it is done: To study the effect of HU-MCA-13 on adult rat spinal cord primary cultures in vitro, a purification procedure was developed that yields highly enriched motor neurons cultures. Spinal cord motor neuron cultures are an important tool for the study of mechanisms involved in motor neuron survival, degeneration and regeneration, motor neuron disorders such as amyotrophic lateral sclerosis or spinal muscular atrophy as well as in spinal cord injury. This bioassay was performed using vehicle (1% DMSO) DMEM negative control and 10 μM HU-MCA-13, tested compound. Briefly, dissected pieces of adult rat spinal cord tissue were maintained in phosphate-buffered saline (PBS) without Ca^2+ and Mg^2+ and pooled together and transferred to an enzymatic dissociation media containing 20 IU/ml papain in Earle's balanced salt solution (Worthington Biochemical, Freehold, N.J.) and incubated for 30 min at 37° C. After enzymatic dissociation, the papain solution was aspirated and the tissue was mechanically triturated with a fire-polished Pasteur pipette in complete media [Neurobasal Medium with B-27 supplement (Gibco, Grand Island, N.Y.), 100 IU/ml penicillin, […], 3.3 μg/ml aphidicolin, 0.5 mM glutamate] containing 2000 IU/ml DNase and 10-mg/ml protease inhibitors. Single-cell suspensions in complete media was plated on pre-coated collagen IV/laminin mixture-coated 96-well plates (Becton-Dickinson, Bedford, Mass.) at a density of 1.0×10^4 cells/well. The spinal cord motor neurons (red arrows) and accessory Schwann cells (orange) were maintained for one day in culture and then exposed to 1% DMSO-DMEM negative control or 10 μM HU-MCA-13 for 7 days. The cultures were photographed, and Image analysis was performed. Neurite outgrowth was measured and quantified as for PC12 cultures, focusing on two parameters: a. SUM-total area covered by neurite outgrowths; b. mean length of a neurite (microns).

The target in series [8] is Adenosine Receptor A2A (ADORA2A) (Homo sapiens, UniProt P29274). The series can be described thus: SAFETYscan ADORA2A Calcium Flux. The class given is cell-based. The conditions noted are these: 10 μM HU-MCA-13, read-out: Maximal Response. A general note: Calcium flux is commonly read through the fluorescence of an indicator in the cells.
Sequence of Adenosine Receptor A2A (ADORA2A) (P29274 whole entry): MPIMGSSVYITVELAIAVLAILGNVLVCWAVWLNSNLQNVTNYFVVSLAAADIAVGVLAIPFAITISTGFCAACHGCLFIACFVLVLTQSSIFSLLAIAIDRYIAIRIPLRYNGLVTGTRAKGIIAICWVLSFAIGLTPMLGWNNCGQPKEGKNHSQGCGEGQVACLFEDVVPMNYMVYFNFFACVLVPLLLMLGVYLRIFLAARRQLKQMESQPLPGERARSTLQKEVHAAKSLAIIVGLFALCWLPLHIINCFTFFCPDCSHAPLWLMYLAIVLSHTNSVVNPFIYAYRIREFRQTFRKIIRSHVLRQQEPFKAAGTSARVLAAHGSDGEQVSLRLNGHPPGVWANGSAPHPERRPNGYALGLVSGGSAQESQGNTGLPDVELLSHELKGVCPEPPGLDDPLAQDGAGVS
Series [9] has as its target T4, Norepinephrine transporter (NET) (Homo sapiens, UniProt P23975).
T4 construct: DiscoverX (SAFETYscan contract panel)
Nature of the series: SAFETYscan NET Transporter. The class given is cell-based. The following applies: Blocker mode; 10 μM HU-MCA-13; read-out: Maximal Response.

Series [10] deals with T5, cGMP-inhibited cyclic nucleotide phosphodiesterase 3A (PDE3A) (Homo sapiens, UniProt Q14432).
T5 construct: DiscoverX (SAFETYscan contract panel)
The series can be described thus: SAFETYscan PDE3A Enzymatic. The class given is biochemical. The conditions noted are these: Inhibitor mode; 10 μM HU-MCA-13; read-out: Maximal Response.

Sequence of Opioid Receptor Delta 1 (OPRD1) (P41143 whole entry): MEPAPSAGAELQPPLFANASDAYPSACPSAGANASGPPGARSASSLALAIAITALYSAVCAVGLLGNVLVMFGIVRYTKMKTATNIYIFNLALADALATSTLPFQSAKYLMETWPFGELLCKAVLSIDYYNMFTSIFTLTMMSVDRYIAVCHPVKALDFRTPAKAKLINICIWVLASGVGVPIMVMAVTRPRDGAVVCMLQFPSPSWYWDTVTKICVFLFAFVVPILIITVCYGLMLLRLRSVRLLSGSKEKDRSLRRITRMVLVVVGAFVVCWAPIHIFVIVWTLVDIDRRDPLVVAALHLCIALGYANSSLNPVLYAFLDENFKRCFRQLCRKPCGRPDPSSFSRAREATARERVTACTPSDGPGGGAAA
Sequence of Muscarinic acetylcholine Receptor M3 (CHRM3) (P20309 whole entry): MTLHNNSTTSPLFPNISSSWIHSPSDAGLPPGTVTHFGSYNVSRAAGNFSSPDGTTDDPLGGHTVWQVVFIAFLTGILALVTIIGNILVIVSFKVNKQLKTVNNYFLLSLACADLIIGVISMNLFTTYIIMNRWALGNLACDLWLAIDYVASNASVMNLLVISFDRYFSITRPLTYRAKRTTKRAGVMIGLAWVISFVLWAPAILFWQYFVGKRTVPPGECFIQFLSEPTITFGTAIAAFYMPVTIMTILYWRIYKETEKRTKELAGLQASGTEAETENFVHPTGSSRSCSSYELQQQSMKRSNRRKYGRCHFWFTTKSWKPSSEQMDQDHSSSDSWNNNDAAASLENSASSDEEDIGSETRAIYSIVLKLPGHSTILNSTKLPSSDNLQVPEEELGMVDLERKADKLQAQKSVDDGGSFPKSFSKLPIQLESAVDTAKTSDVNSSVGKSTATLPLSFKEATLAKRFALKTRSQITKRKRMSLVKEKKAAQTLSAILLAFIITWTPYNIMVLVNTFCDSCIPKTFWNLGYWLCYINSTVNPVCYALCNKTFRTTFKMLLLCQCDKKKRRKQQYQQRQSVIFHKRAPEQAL
T4 sequence (P23975 whole entry): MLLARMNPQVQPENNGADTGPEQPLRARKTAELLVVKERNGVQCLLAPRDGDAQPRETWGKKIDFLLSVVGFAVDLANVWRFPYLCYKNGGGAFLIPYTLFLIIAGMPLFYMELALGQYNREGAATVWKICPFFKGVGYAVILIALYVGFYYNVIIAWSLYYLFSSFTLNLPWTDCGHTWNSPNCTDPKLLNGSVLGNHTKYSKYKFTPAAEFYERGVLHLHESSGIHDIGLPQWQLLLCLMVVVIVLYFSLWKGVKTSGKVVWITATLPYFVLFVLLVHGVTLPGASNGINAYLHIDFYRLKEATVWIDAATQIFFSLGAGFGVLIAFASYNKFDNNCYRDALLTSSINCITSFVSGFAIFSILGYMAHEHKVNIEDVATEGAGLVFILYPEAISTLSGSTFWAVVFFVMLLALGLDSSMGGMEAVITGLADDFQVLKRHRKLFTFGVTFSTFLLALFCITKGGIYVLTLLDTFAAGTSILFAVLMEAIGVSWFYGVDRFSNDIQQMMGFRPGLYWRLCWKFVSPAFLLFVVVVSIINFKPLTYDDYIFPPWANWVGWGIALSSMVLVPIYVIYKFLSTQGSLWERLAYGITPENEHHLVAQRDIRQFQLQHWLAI

Turning to `C=CCC1CCC[C@@H](CCC(=O)O)C1=C` (stereo partly drawn) [Compound 13], the Emax in series [1] (Agonist mode) turned out to be 1.92%; in series [1] (Antagonist mode), 9.29%; in series [2] it was 21.6%; in series [3] (Agonist mode), 0.13%; in series [3] (Antagonist mode), 8.81%; in series [4], 0%. Further, the Emax is 6.34% in series [5] (Agonist mode); 0% in series [5] (Antagonist mode); 5.95% in [6] (Blocker mode); 0% in series [6] (Opener mode); 0% in series [8] (Agonist mode); 4.09% in [8] (Antagonist mode). For the same molecule, the Emax came to 3.53% in [9] and 3.21% in series [10]. In addition, the “kidney (creatinine and blood urea nitrogen) functions” value with male C57BL/6 mice (24 hours after 250 mg/kg iv) is on record as “normal”. Further, the “liver (ALP, AST, ALT) functions” value with male C57BL/6 mice (24 hours after 250 mg/kg iv) was “normal”. The bilirubin concentration entry with male C57BL/6 mice (in both control and HU-MCA-13-injected mice) is reported as “some fluctuation”. Besides, in the series on male C57BL/6 mice (vs DMSO 1% control, 24 hours after 250 mg/kg iv), the “blood count, electrolytes, coagulation parameters” value is given as “No difference”. Also, the “mean length of the neurite” value in series [7] was determined as 350 micrometer. Further, the “neurotropic effect versus control medium” value in [7] is listed as “four folds neurotropic effect”. For the same molecule, the “total (SUM) neurite length” value in series [7] was determined as 600 micrometer.
